Measured values reported in article PMC3514216, “SRC Homology 2 Domain Binding Sites in Insulin, IGF-1 and FGF receptor mediated signaling networks reveal an extensive potential interactome” (Cell Communication and Signaling : CCS, 2012).
Numbering of substitutions follows the chain as printed.

Legend:
CrkL SH2 domain [1] = target: T1, CrkL SH2 domain (Homo sapiens, UniProt P46109); assay: Fluorescence polarization solution binding; conditions: Rhodamine B-labeled peptide, GST-SH2, Beacon 2000, read-out: Affinity (KD)
T1 sequence (P46109 14-102 limits assumed): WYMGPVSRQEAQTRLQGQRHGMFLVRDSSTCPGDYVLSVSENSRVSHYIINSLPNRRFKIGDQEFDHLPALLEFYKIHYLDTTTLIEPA
Excerpt: To verify the binding results obtained from addressable peptide arrays we employed an orthogonal method of determining SH2 interactions with peptide ligands. We measured the dissociation constants of 60 binary SH2-peptide pairs in solution by fluorescence polarization (Table 2, Additional file 2: Figures S3A-C).
Peptides were synthesized using FMOC-chemistry onto pre-loaded tenta-gel resins. Peptides were then labeled with Rhodamine B (Abbey Color) and then cleaved using trifluoroacetic acid. Peptides were lyophilized and then purified using a LC/MS (Agilent 2100). Dissociation constants were measured using the Beacon 2000 (Invitrogen) as previously described.
Binding Affinities determined by Fluorescence Polarization. Rhodamine B-labeled peptides were mixed with varying concentrations of GST-tagged SH2 domains. Fluorescence polarization measurements were read on a Beacon 2000 (Invitrogen). The curves were fit to a Michaelis-Menten equation to calculate the dissociation constant, KD. […] (C) Affinity measurements that fell below the 2X mean intensity and were considered array negative on the SPOT array.

Plcγ-C SH2 domain [2] = target: Plcγ-C SH2 domain; set-up: method as in 2 sources, one per row (each row's own in cited_ref): ref 95-97 = [95]; PMID 9422724; doi:10.1074/jbc.273.2.729; Ottinger EA Botfield MC Shoelson SE Tandem SH2 domains confer high specificity in tyrosine kinase signaling J Biol Chem 1998 273 729 735 9422724 10.1074/jbc.273.2.729 || [96]; PMID 8181064; doi:10.1016/0092-8674(94)90160-0; Pascal SM Singer AU Gish G Yamazaki T Shoelson SE Pawson T Kay LE Forman-Kay JD Nuclear magnetic resonance structure of an SH2 domain of phospholipase C-gamma 1 complexed with a high affinity binding || [97]; PMID 15641795; doi:10.1021/bi048641k; Finerty PJ Jr Mittermaier AK Muhandiram R Kay LE Forman-Kay JD NMR dynamics-derived insights into the binding properties of a peptide interacting with an SH2 domain Biochemistry 2005 44 694 703 156417 ||| ref [98] = [98]; PMID 11526507; doi:10.1038/sj.onc.1204654; Malabarba MG Milia E Faretta M Zamponi R Pelicci PG Di Fiore PP A repertoire library that allows the selection of synthetic SH2s with altered binding specificities Oncogene 2001 20 5186 5194 11526507; conditions: tandem SH2 domains of PLCG1 against tandem phospho-peptide of PDGFRβ Y1009/Y1021; read-out: Affinity (KD); cited from earlier work
Plcγ-N SH2 domain [3] = target: Plcγ-N SH2 domain; set-up: method as in PMID 9422724; conditions: tandem SH2 domains of PLCG1 against tandem phospho-peptide of PDGFRβ Y1009/Y1021; read-out: Affinity (KD); cited from earlier work
panel of 50 SH2 domains = assay: SPOT peptide array probed with each of 50 GST-SH2 domains; type: binding; conditions: SH2 domains with intensity >3X array mean; GST-SH2 0.25 μM, 1 mM DTT
How it was run: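 Membrane SPOT arrays of 192 phosphotyrosine 11-mer peptides (four residues N-terminal, six C-terminal to pTyr) probed with GST-SH2 fusions, detected by anti-GST plus near-infrared secondary antibody. Spots >3-fold array mean scored positive, below mean negative, 1–3× indeterminate; peptides binding GST alone above mean in two of three trials flagged as sticky.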

PI3K1_N SH2 domain [4] = target: T2, PI3K1_N SH2 domain (Homo sapiens, UniProt P27986); set-up: method as in PMID 8384875; conditions: cited from earlier work
T2 sequence (P27986 333-428 limits assumed): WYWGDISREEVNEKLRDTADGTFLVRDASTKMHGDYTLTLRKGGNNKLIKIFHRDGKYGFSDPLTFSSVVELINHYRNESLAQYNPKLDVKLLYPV

PI3K1_N SH2 domain [5] = target: T2, PI3K1_N SH2 domain; assay: SPOT peptide array; type: binding; conditions: GST-SH2 0.25 μM, membrane-bound peptide, 1 mM DTT, LiCor read-out
Excerpt: (§1) The use of addressable peptide arrays is a reproducible and semi-quantitative approach that has been extensively validated for studying protein interactions with peptide ligands. To investigate connections between SH2 domain proteins and their putative phosphorylated docking sites on cell surface receptors, we developed addressable arrays consisting of 192 phosphotyrosine peptides. This peptide set was assembled using 71 phosphotyrosine peptide motifs corresponding to all of the cytoplasmic tyrosine residues within the FGF receptors (FGFR1-4), insulin receptor (InsR) and IGF-1 receptor (IGF-1R) (Figure 1A). Activation of these receptors results in the phosphorylation of associated scaffold proteins, and so 75 phosphotyrosine peptides corresponding to a comprehensive list of tyrosine residues within insulin receptor substrates (IRS-1 and IRS-2) and fibroblast receptor substrates (FRS-2 and FRS-3) were included. In addition, 33 phosphotyrosine peptides were incorporated from the downstream signaling proteins PLC-γ1, p130Cas (BCAR1) and p62DOK1. […] These control peptides provide a reference and establish the empirical cut-off for designated binding interactions (Table 1). No discrimination was made against peptides on the basis of reported phosphorylation state in order to examine a diverse and unbiased set of motifs. The resulting set of 192 phosphotyrosine peptides and their corresponding position in the proteins of origin is noted in Additional file 1: Table S1. Addressable arrays were synthesized as membrane-bound 11-mer peptides using the SPOT synthesis technique. While the majority of SH2 domains recognize residues C-terminal to the phosphotyrosine in their cognate peptide ligands, additional contacts between SH2 domains and residues N-terminal to the phosphotyrosine are observed for the SH2 domain of Sh2d1a (SAP) and cannot be ruled out in other cases. Peptides were synthesized with six flanking residues C-terminal to the phosphotyrosine and four residues N-terminal to the phosphotyrosine.
(§2) SH2 domains were arrayed as GST fusion proteins and detected using anti-GST primary antibodies and near-infrared labeled secondary antibodies. In an effort to present a dataset with minimal false positives, we chose an empirical cutoff based on the array average across all peptide spots to classify interactions (Figure 1A). In cases where the intensity of the signal for an individual SH2-domain binding event exceeded the mean intensity of all the peptides on the membrane by three-fold were scored as “array positives” [22]. Non-binding was judged in cases where the intensity of a spot was less than the mean intensity of all spots on the membrane and these were scored as “array negatives”. Peptides with signal intensities between 1X and 3X mean were scored as “indeterminate” and ascribed as neither array positive binding interactions nor array-negative non-binders. […] This signature may be indicative of promiscuity differences between phosphopeptides or there may be a subset of peptides which interact in a nonspecific fashion with either the GST fusion tag or one of the antibodies used for detection, resulting in false positives. Consistent with our goal of reducing the errors associated with identifying false-positives, we probed three separate arrays with three separate preps of the GST fusion tag alone. Potentially non-specificly interacting peptides (so-called ‘sticky’ peptides) were identified as any that bound to GST with above mean intensity in two out of three separate trials. This approach identifies any peptides which interact with GST or either of the recognition antibodies, a known confounding factor for downstream analysis. This conservative approach allows us to score many significant peptides as ‘binders’ which may have been indeterminate before when incorporating the ‘sticky’ peptides into the array average. […]

Vav1 SH2 domain = Vav1 SH2 domain (Homo sapiens, UniProt P15498); assay: SPOT peptide array; type: binding; conditions: GST-SH2 0.25 μM, membrane-bound peptide, 1 mM DTT, LiCor read-out
Chain of Vav1 SH2 domain (P15498 671-765 limits assumed): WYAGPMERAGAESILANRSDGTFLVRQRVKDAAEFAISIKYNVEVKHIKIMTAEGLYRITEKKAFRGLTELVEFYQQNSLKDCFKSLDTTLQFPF
Excerpt: as §1, §2

Plcγ-N SH2 domain [6] = assay: SPOT peptide array; type: binding; conditions: GST-SH2 0.25 μM
Excerpt: as §1, §2

Plcγ-C SH2 domain [7] = assay: SPOT peptide array; type: binding; conditions: GST-SH2 0.25 μM
Excerpt: as §1, §2

Nck1 SH2 domain = Nck1 SH2 domain (Homo sapiens, UniProt P16333); assay: SPOT peptide array; type: binding; conditions: GST-SH2 0.25 μM, membrane-bound peptide, 1 mM DTT, LiCor read-out
Excerpt: as §1, §2

Abl1 SH2 domain = target: T3, Abl1 SH2 domain (Homo sapiens, UniProt P00519); assay: SPOT peptide array; type: binding; conditions: GST-SH2 0.25 μM, membrane-bound peptide, 1 mM DTT, LiCor read-out
T3 sequence (P00519 127-217 limits assumed): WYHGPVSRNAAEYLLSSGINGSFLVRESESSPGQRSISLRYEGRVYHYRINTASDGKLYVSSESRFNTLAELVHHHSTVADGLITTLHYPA
Excerpt: as §1, §2

Grb2 SH2 domain = Grb2 SH2 domain (Homo sapiens, UniProt P62993); set-up: method as in earlier work; conditions: SH2 protein microarray; N.B. = non binding; read-out: Protein Microarray (Macbeath) – KD; cited from earlier work
Chain of Grb2 SH2 domain (P62993 60-152 limits assumed): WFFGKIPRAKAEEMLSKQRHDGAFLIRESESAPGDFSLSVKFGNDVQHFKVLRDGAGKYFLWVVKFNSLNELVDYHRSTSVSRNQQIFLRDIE

Abl2 SH2 domain [8] = target: T4, Abl2 SH2 domain (Homo sapiens, UniProt P42684); set-up: method as in earlier work; conditions: SH2 protein microarray; N.B. = non binding; read-out: Protein Microarray (Macbeath) – KD; cited from earlier work
T4 sequence (P42684 173-263 limits assumed): T3 sequence (P00519 127-217 limits assumed) with N9S, G18L, R35L, A53T, S54A, L58V, S61T, S62A, N67S, I84V

Shc1 SH2 domain = target: T5, Shc1 SH2 domain (Homo sapiens, UniProt P29353); assay: SPOT peptide array; type: binding; conditions: GST-SH2 0.25 μM, membrane-bound peptide, 1 mM DTT, LiCor read-out
T5 sequence (P29353 488-579 limits assumed): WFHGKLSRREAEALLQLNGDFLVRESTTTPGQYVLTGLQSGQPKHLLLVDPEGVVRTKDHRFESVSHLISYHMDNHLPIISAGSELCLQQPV
Excerpt: as §1, §2

Sh2d1b SH2 domain = Sh2d1b SH2 domain (Homo sapiens, UniProt O14796); assay: SPOT peptide array; type: binding; conditions: GST-SH2 0.25 μM, membrane-bound peptide, 1 mM DTT, LiCor read-out
Chain of Sh2d1b SH2 domain (O14796 5-101 limits assumed): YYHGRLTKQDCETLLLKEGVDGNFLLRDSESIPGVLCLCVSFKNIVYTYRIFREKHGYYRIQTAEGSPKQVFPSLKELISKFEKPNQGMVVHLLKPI
Excerpt: as §1, §2

[9] = test system: Plcγ SH2 domain (N or C not specified); assay: SPOT peptide array; type: binding; conditions: GST-SH2 0.25 μM, membrane-bound peptide, 1 mM DTT, LiCor read-out
Excerpt: as §1, §2

Shb SH2 domain = Shb SH2 domain (Homo sapiens, UniProt Q15464); assay: SPOT peptide array; type: binding; conditions: GST-SH2 0.25 μM
Chain of Shb SH2 domain (Q15464 410-504 limits assumed): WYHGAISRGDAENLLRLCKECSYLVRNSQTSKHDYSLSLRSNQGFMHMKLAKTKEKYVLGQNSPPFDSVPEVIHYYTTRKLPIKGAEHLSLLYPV
Excerpt: as §1, §2

Crk SH2 domain = Crk SH2 domain (Homo sapiens, UniProt P46108); assay: SPOT peptide array; type: binding; conditions: spot intensity as factor of array mean; GST-SH2 0.25 μM
Chain of Crk SH2 domain (P46108 13-118 limits assumed): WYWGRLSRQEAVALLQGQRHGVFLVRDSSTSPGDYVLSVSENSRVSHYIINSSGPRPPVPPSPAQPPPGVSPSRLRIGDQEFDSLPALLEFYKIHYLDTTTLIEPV
Excerpt: as §1, §2

CrkL SH2 domain [10] = target: T1, CrkL SH2 domain; assay: SPOT peptide array; type: binding; conditions: spot intensity as factor of array mean; GST-SH2 0.25 μM
Excerpt: as §1, §2

Abl2 SH2 domain [11] = target: T4, Abl2 SH2 domain; assay: SPOT peptide array; type: binding; conditions: spot intensity as factor of array mean; GST-SH2 0.25 μM
Excerpt: as §1, §2

Sh2b SH2 domain = Sh2b SH2 domain (Homo sapiens, UniProt Q9NRF2); assay: SPOT peptide array; type: binding; conditions: GST-SH2 0.25 μM
Excerpt: as §1, §2

[12] = membrane-bound peptide, 1 mM DTT, LiCor read-out
[13] = spot intensity as factor of array mean

CC(C)C[C@H](NC(=O)[C@H](CCC(=O)O)NC(=O)[C@H](Cc1ccc(OP(=O)(O)O)cc1)NC(=O)[C@H](CCC(=O)O)NC(=O)[C@H](CO)NC(=O)[C@@H](NC(=O)CN)C(C)C)C(=O)N1CCC[C@H]1C(=O)N[C@@H](CCC(=O)O)C(=O)N[C@@H](CC(=O)O)C(=O)N1CCC[C@H]1C(=O)O [GVSEpYELPEDP]
Kd (CrkL SH2 domain [1]): > 50 µM

ADNDpYIIPLPD [11-mer phosphotyrosine control peptide, PDGFRb (Y1021), reference compound]
Kd (Plcγ-C SH2 domain [2]): 0.00065 to 0.0022 µM | Kd (Plcγ-N SH2 domain [3]): 0.00065 to 0.0022 µM | Other SH2 domains bound (additional array-positive SH2 domains) (panel of 50 SH2 domains): Brk | Relative affinity (ID50) (PI3K1_N SH2 domain [4]): 45 µM | Array positive (PI3K1_N SH2 domain [5]): No (Peptide spots with average intensity values between 1X-3X the array mean were defined as ‘indeterminate’. Those with intensities below 1X mean were defined as array negative) | Array positive (Vav1 SH2 domain): Yes (Array-positive binding was ascribed to interactions with intensities greater than three times the array mean) | Array positive (Plcγ-N SH2 domain [6]; [12]): Yes (Array-positive binding was ascribed to interactions with intensities greater than three times the array mean) | Array positive (Plcγ-C SH2 domain [7]; [12]): Yes (Array-positive binding was ascribed to interactions with intensities greater than three times the array mean)

EDPIpYDEPEGL [11-mer phosphotyrosine peptide, p62DOK1 (Y362)]
Other SH2 domains bound (additional array-positive SH2 domains) (panel of 50 SH2 domains): Blk, Hck, Lck, Lyn, Shc1, Src | Array positive (Nck1 SH2 domain): Yes (Array-positive binding was ascribed to interactions with intensities greater than three times the array mean) | Array positive (Abl1 SH2 domain): Yes (Array-positive binding was ascribed to interactions with intensities greater than three times the array mean)

EIFTLGGSPpYPGVPVEED (EIFTLGGSPYPGVPVEED)
Kd (Grb2 SH2 domain): 0.14 µM | Kd (Abl2 SH2 domain [8]): 0.4 µM

HDGLpYQGLSTA [11-mer phosphotyrosine control peptide, CD150 (Y142)]
Array positive (Shc1 SH2 domain): No (Peptide spots with average intensity values between 1X-3X the array mean were defined as ‘indeterminate’. Those with intensities below 1X mean were defined as array negative)

SLTIpYAQVQKA [11-mer phosphotyrosine control peptide, SLAM (Y280)]
Array positive (Sh2d1b SH2 domain): Yes (Array-positive binding was ascribed to interactions with intensities greater than three times the array mean)

SNQEpYLDLSMP [11-mer phosphotyrosine peptide, FGFR1 (Y766)]
Peptide array intensity (X mean) (Plcγ-N SH2 domain [6]; [13]): 0.52 X Mean | Array positive [9]: No (Peptide spots with average intensity values between 1X-3X the array mean were defined as ‘indeterminate’. Those with intensities below 1X mean were defined as array negative) | Peptide array intensity (X mean) (Plcγ-C SH2 domain [7]; [13]): 0.21 X Mean | Array positive (Shb SH2 domain; [12]): No (Peptide spots with average intensity values between 1X-3X the array mean were defined as ‘indeterminate’. Those with intensities below 1X mean were defined as array negative) | Peptide array intensity (X mean) (Shb SH2 domain; [13]): 0.45 X Mean

SSKDLVSCApYQVARGMED
Peptide array intensity (X mean) (Crk SH2 domain): <2x X Mean | Peptide array intensity (X mean) (CrkL SH2 domain [10]): <2x X Mean | Peptide array intensity (X mean) (Abl2 SH2 domain [11]): <2x X Mean

THDLYMIMREA [11-mer peptide, FGFR3 (Y724)]
Array positive (Sh2b SH2 domain; [12]): No (Peptide spots with average intensity values between 1X-3X the array mean were defined as ‘indeterminate’. Those with intensities below 1X mean were defined as array negative) | Peptide array intensity (X mean) (Sh2b SH2 domain; [13]): 0.44 X Mean
